Laboratory results reported in PubChem BioAssay (NCI).
Values joined by “and” are separate entries in the source; they are usually repeats but may differ in a detail not shown here. Identical values can stand only once.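 How tested: cells in 96-well plates exposed to compound for 48 hours at five concentrations. Here, GI50 denotes the concentration required for 50% inhibition of growth. TGI: concentration producing complete growth inhibition.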

How the values were obtained:
Assay in all cases: inhibition of tumour cell growth, NCI panel, 48 h
786-0 renal = test system: 786-0 renal
HCT-15 colon = test system: HCT-15 colon
NCI/ADR-RES ovarian = test system: NCI/ADR-RES ovarian
OVCAR-3 ovarian = test system: OVCAR-3 ovarian
PC-3 prostate = test system: PC-3 prostate
SK-MEL-28 melanoma = test system: SK-MEL-28 melanoma
SR leukemia = test system: SR leukemia
UO-31 renal = test system: UO-31 renal

Row | SMILES | GI50 (786-0 renal) | TGI (786-0 renal) | GI50 (HCT-15 colon) | TGI (HCT-15 colon) | GI50 (NCI/ADR-RES ovarian) | TGI (NCI/ADR-RES ovarian) | GI50 (OVCAR-3 ovarian) | TGI (OVCAR-3 ovarian) | GI50 (PC-3 prostate) | TGI (PC-3 prostate) | GI50 (SK-MEL-28 melanoma) | TGI (SK-MEL-28 melanoma) | GI50 (SR leukemia) | TGI (SR leukemia) | GI50 (UO-31 renal) | TGI (UO-31 renal)
1 | CCCS(=O)(=O)Nc1ccc(F)c(C(=O)c2c[nH]c3ncc(-c4ccc(Cl)cc4)cc23)c1F | 4.13 µM and 5.43 µM | 26.2 µM and > 10 µM | 4.45 µM and 4.1 µM | 17.7 µM and > 10 µM | 6.75 µM and > 10 µM | 31.6 µM and > 10 µM | 7.65 µM and > 8.66 µM | 25.5 µM and > 10 µM | 2.98 µM and 6.01 µM | 16.7 µM and > 10 µM | 0.0369 µM and 0.0422 µM | 2.98 µM and 0.696 µM | 2.1 µM and 2.92 µM | 13.9 µM and > 10 µM | 4.96 µM and 4.79 µM | 15.1 µM and > 10 µM
2 | COc1ccc(N2CCN(C(=O)c3ccccc3Nc3ccnc(C(F)(F)F)c3)CC2)cc1 | > 100 µM | > 100 µM | > 100 µM | > 100 µM | 23.8 µM | > 100 µM | 28.5 µM | > 100 µM | 18.7 µM | > 100 µM | > 100 µM | > 100 µM | 10.8 µM | > 100 µM | 28 µM | > 100 µM
3 | O=c1[nH]cc(CS(=O)(=O)Cc2c[nH]c(=O)[nH]c2=O)c(=O)[nH]1 | – | > 100 µM | – | > 100 µM | – | > 100 µM | – | – | – | > 100 µM | – | > 100 µM | – | > 100 µM | – | > 100 µM
4 | COc1ccc2c(c1)CCC1C2CC[C@@]2(C)C1CC[C@@]2(O)CNC(=O)/C=C/c1ccc(O)c(OC)c1 (stereo not given in full) | 23.2 µM | > 100 µM | 11.5 µM | 33.1 µM | 12.5 µM | 83.4 µM | 37.5 µM | > 100 µM | 12.1 µM | 83.8 µM | 15.2 µM | 84.4 µM | – | – | 10.3 µM | > 100 µM
5 | CN(C)c1ccc(/C=C2\C[C@H]3[C@@H]4CC=C5C[C@@H](N6CCCC6)CC[C@]5(C)[C@H]4CC[C@]3(C)[C@H]2O)cc1 | 1.84 µM | 1.29 µM and 3.73 µM | 3.43 µM | 5.51 µM and 22.3 µM | 4.01 µM | 6.19 µM and 19.9 µM | 2.06 µM | 2.7 µM and 4.86 µM | 2.82 µM | 50 µM and 12 µM | – | 1.84 µM | 3.04 µM | – | 1.96 µM | 1.62 µM and 4.25 µM
6 | C=C(CN1CCN(c2ccccc2OC)CC1)c1ccc(C(=O)Nc2ccccc2N)cc1 | 2.45 µM | 29.1 µM | 2.03 µM | 31.3 µM | 0.143 µM | 1.56 µM | 5.64 µM | 19.7 µM | 9.64 µM | > 50 µM | 2.14 µM | > 50 µM | – | – | 7.93 µM | 16.4 µM
7 | S=c1nc[nH]c2c1ncn2Cc1ccco1 | – | > 100 µM | – | > 100 µM | – | > 100 µM | – | > 100 µM | – | > 100 µM | – | > 100 µM | – | > 100 µM | – | > 100 µM
8 | CN1/C(=C\C(I)C(I)C2=[N+](C)c3ccccc3C2(C)C)C(C)(C)c2ccccc21 (stereo not given) | 0.904 µM | 16.2 µM | 0.997 µM | > 37.6 µM | 13.3 µM | 42.2 µM | 0.304 µM | 13.8 µM | 0.177 µM | 12.3 µM | 0.522 µM | 19.8 µM | 0.151 µM | 13.8 µM | 0.601 µM | 9.75 µM
9 | C#CCN1C(=O)/C(=c2\sc3n(c2=O)C2C(NN=3)N(CC)C(=O)N2CC)c2ccccc21 (stereo not given) | 0.669 µM | 22.5 µM | 0.394 µM | > 100 µM | 0.712 µM | 21.9 µM | 0.316 µM | 1.69 µM | 0.463 µM | > 100 µM | 0.734 µM | > 100 µM | 0.344 µM | > 100 µM | 0.673 µM | > 100 µM
10 | COC(=O)c1c[nH]c(=O)[nH]c1=O | – | > 100 µM | – | > 100 µM | – | > 100 µM | – | > 100 µM | – | > 100 µM | – | > 100 µM | – | > 100 µM | – | > 100 µM
11 | COc1ccc(OC)c(-c2nc3sccn3c2/C=C2/C(=O)Nc3ccc(Cl)cc32)c1 | 44.7 µM | > 100 µM | 23.1 µM | 58.9 µM | 25.6 µM | 89.8 µM | 21.7 µM | 55.2 µM | 27.2 µM | > 100 µM | 20.6 µM | 39.8 µM | 18.5 µM | 53.4 µM | 23.6 µM | 81.8 µM
12 | COc1ccc(-c2nn(-c3cccc(Cl)c3)cc2C=C(C#N)C#N)cc1 | 2.25 µM | 6.36 µM | 3.24 µM | > 100 µM | 2.49 µM | 7.17 µM | 2.2 µM | 4.9 µM | – | – | 2.35 µM | 5.84 µM | 1.54 µM | 3.66 µM | 2.21 µM | 7.88 µM
13 | C(=N\Nc1nnc2c(n1)[nH]c1ccccc12)/c1cccnc1 | – | > 100 µM | – | > 100 µM | – | > 100 µM | – | > 100 µM | – | > 100 µM | – | > 100 µM | – | – | – | > 100 µM
14 | O=[N+]([O-])c1cccc([N+](=O)[O-])c1S(=O)(=O)c1ccccc1 | – | 5.21 µM | – | 4.1 µM | – | 31.4 µM | – | 5.5 µM | – | 32.3 µM | – | 15.2 µM | – | – | – | 3.5 µM
15 | O=C(c1ccccc1Nc1ccnc(C(F)(F)F)c1)N1CCN(c2cccc(Cl)c2)CC1 | 23.2 µM | > 84 µM | 24.1 µM | > 100 µM | 16.2 µM | 59.5 µM | 19 µM | > 80.9 µM | 9.45 µM | 53 µM | 26.5 µM | > 100 µM | 13.5 µM | > 58.7 µM | 13.7 µM | 68.1 µM
16 | COc1ccc(SC2c3cc(OC)c(OC)cc3Oc3nc(N)c(C#N)c(N)c32)cc1 (stereo not given) | 0.493 µM | 1.73 µM | 0.973 µM | 2.23 µM | – | – | 1.06 µM | 2.31 µM | 1.16 µM | 2.49 µM | 1.47 µM | 2.91 µM | – | – | 1.34 µM | 2.61 µM
17 | Nc1ccc(-c2nc3ccc4[nH]ncc4c3c3c2CCCC3)cc1F | 1.6 µM | 10.3 µM | 0.691 µM | 8.05 µM | 1.86 µM | 16.6 µM | 1.89 µM | 18.5 µM | – | – | 1.81 µM | 6.86 µM | 1.12 µM | 9.1 µM | 1.01 µM | 5.53 µM
